Experimental data published in BindingDB's records for patent US20260060961 (Jazz Pharmaceuticals Ireland, 2026).

Target: GTPase KRas [G12C] (Homo sapiens, UniProt P01116, G12C)
Test: HTRF Nucleotide Exchange Assay
Protocol: The capacity of compounds to bind KRAS G12C and KRAS wildtype was quantified using a HTRF nucleotide exchange assay. Recombinant human KRAS protein (5 nM; aa1-188 KRAS WT or KRAS containing the G12C amino acid substitution, an N-terminal 6×His-tag and leader sequence), and 2 nM Europium-labeled anti-6×His antibody were mixed in assay buffer (10 mM HEPES pH7.3, 75 mM NaCl, 5 mM MgCl2, 0.05% BSA, 0.0025% NP-40 and 100 mM KF) with various concentrations of compound in a 384-well plate and a volume of 5 μL. After a 180 minute incubation at room temperature, 5 μl of 200 nM EDA-GTP-DY647P1 diluted in assay buffer was added to the plate. Following 30-minute incubation at room temperature, time-resolved fluorescence was measured on a PerkinElmer Envision plate reader. DMSO (0.3%) and unlabeled GDP (1 μM) or equivalent tool compound were used to generate the Max and Min assay signals, respectively. Data was analysed using a four-parameter logistic model to calculate IC50 values, with at least two independent replicates were performed for each compound.

Sequence of GTPase KRas [G12C] (P01116 whole entry G12C): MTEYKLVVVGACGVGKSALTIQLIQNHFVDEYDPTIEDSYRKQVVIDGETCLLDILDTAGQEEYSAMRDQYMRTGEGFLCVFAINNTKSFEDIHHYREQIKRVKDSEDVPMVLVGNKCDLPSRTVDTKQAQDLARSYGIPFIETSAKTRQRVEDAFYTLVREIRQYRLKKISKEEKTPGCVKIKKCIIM

SMILES | IC50
C=CC(=O)N1CC2(CC(c3nc(-c4ccc(OCC(=O)N5CCOCC5)cc4)c(-c4cc(O)cc5ccccc45)n3C)C2)C1 [US20260060961, Example 29] | < 1 µM
C=CC(=O)N1CC2(CC(c3nc(-c4ccc5c(cnn5C)c4)c(-c4cccc5ccccc45)n3C)C2)C1 [US20260060961, Example 34] | > 10 µM
